Assay [1] deals with normal human epidermal keratinocyte (NHEK) cells. As to the kind of experiment: Human Keratinocyte Inhibition (3H TdR Assay). Type of assay: cell-based. Particulars: 24 h incubation, 3H-thymidine.
A further assay has as its target T1, PKC isoenzyme ε (Homo sapiens, UniProt Q02156).
T1 construct: made in house; host or cells: baculovirus-insect cell expression system
T1 sequence (Q02156 1-737): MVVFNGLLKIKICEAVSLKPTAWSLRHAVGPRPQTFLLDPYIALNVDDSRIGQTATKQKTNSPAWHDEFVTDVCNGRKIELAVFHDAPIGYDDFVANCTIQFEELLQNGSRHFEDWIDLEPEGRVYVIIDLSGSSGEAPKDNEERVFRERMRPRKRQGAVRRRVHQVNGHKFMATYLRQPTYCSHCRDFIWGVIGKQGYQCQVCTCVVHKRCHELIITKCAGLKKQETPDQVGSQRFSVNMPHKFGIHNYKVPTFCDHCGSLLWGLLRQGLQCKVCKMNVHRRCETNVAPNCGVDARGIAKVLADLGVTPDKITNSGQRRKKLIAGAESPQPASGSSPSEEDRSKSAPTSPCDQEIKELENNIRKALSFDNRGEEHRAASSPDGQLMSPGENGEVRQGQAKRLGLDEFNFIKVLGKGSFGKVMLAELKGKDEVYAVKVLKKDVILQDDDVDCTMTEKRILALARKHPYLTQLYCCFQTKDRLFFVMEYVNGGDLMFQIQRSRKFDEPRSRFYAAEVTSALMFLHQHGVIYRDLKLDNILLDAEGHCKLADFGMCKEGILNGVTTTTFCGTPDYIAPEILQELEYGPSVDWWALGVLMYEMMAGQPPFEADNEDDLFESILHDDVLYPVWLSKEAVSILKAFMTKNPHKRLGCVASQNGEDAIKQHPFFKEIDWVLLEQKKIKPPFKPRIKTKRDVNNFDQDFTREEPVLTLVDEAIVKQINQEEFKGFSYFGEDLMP
The assay is described as follows: Protein kinase C inhibition assay, PKC isoenzyme ε. The conditions noted are these: read-out: IC50 PKC ε. It is filed as biochemical. The essentials: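 Lipid vesicles of phosphatidylserine and DAG were co-sonicated and used below saturating levels. Compounds were added at four final concentrations (1, 10, 50, 150 μM), and the reaction was started with insect-cell-expressed enzyme, then stopped after 10 min with TCA. Substrate phosphorylation was counted on glass fiber filters to give IC50 values.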

Assay [2] addresses cAMP dependent protein kinase (PKA). The assay is described as follows: cAMP Dependent Protein Kinase (PKA) Assay. Type of assay: biochemical. The conditions noted are these: for IC50: catalytic subunit of PKA; for effect on PKA activity: result in words. The essentials: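 PKA catalytic subunit preincubated with test compound added from DMSO at final 30 and 150 μM; reaction started with ^32P-ATP, run 10 min, stopped with 25% TCA plus BSA. Phosphorylated protein collected by filtration and counted by beta scintillation.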

Broadly, the IC50 is the concentration needed to halve the response being measured. As to `O=C1C(Nc2ccc(S(=O)(=O)Nc3ccccn3)cc2)=CC(=Nc2ccc(S(=O)(=O)Nc3ccccn3)cc2)c2ccccc21` [Compound 3i], the figures for the half-maximal inhibitory concentration (IC50) (in assay [1]; on PKC isoenzyme ε; in assay [2]) were 0.61 µM, greater than 150 µM and greater than 150 µM, respectively. The “effect on PKA activity” value in assay [2] was “did not effect on PKA activity”.

Turning to `COc1ccc(NS(=O)(=O)c2ccc(N=C3C=C(Nc4ccc(S(=O)(=O)Nc5ccc(OC)nn5)cc4)C(=O)c4ccccc43)cc2)nn1` [Compound 3j], the IC50 in assay [1] is 0.34 µM; on PKC isoenzyme ε it was greater than 150 µM; in assay [2], greater than 150 µM. In addition, in assay [2], the “effect on PKA activity” value is recorded as “did not effect on PKA activity”.

Take `O=C1C(Nc2ccc(S(=O)(=O)Nc3ccc(Cl)nn3)cc2)=CC(=Nc2ccc(S(=O)(=O)Nc3ccc(Cl)nn3)cc2)c2ccccc21` [Compound 3l]: the values for the IC50 (in assay [1] (Homo sapiens); on PKC isoenzyme ε; in assay [2]) were 4.3 µM, greater than 150 µM and 98 µM, respectively.

With `O=C1C(Nc2ccc(S(=O)(=O)Nc3cnc4ccccc4n3)cc2)=CC(=Nc2ccc(S(=O)(=O)Nc3cnc4ccccc4n3)cc2)c2ccccc21` [Compound 3m], the half-maximal inhibitory concentration (IC50) in assay [1] (Homo sapiens) was 0.4 µM; on PKC isoenzyme ε, greater than 150 µM; in assay [2] it was 82 µM.

Regarding `O=C1C(Nc2ccc(S(=O)(=O)NCc3ccccn3)cc2)=CC(=Nc2ccc(S(=O)(=O)NCc3ccccn3)cc2)c2ccccc21` [Compound 3n], the IC50 in assay [1] is 1.1 µM; at PKC isoenzyme ε, greater than 150 µM; in assay [2] it was greater than 150 µM. The “effect on PKA activity” value in assay [2] is “did not effect on PKA activity”.

`Cc1cc(NS(=O)(=O)c2ccc(N=C3C=C(Nc4ccc(S(=O)(=O)Nc5cc(C)on5)cc4)C(=O)c4ccccc43)cc2)no1` [Compound 6a]: the values for the half-inhibitory concentration (IC50) (in assay [1]; on PKC isoenzyme ε; in assay [2]) were 1.2 µM, 145 µM and 157 µM, respectively.

For the molecule `Cc1cc(C)nc(NS(=O)(=O)c2cc(N=C3C=C(Nc4ccc(C)c(S(=O)(=O)Nc5cc(C)cc(C)n5)c4)C(=O)c4ccccc43)ccc2C)c1` [Compound 6ag], the results for the IC50 (in assay [1] (Homo sapiens); on PKC isoenzyme ε) were 0.5 µM and 35 µM, respectively. Besides, the “effect on PKA activity” value in assay [2] is listed as “did not effect on PKA activity”.

As for `Cc1cc(C)nc(NS(=O)(=O)c2ccc(N=C3C=C(Nc4ccc(S(=O)(=O)Nc5nc(C)cc(C)n5)cc4)C(=O)c4ccccc43)cc2)n1` [Compound 6c], the IC50 in assay [1] was 0.04 µM; on PKC isoenzyme ε, 15 µM; in assay [2] it was 48 µM.

`O=C1C(Nc2ccc(S(=O)(=O)Nc3ccc(Cl)nn3)cc2)=CC(=Nc2ccc(S(=O)(=O)Nc3ccc(Cl)nn3)cc2)c2ccccc21` [Compound 6l]: the IC50 in assay [1] is 3.3 µM; at PKC isoenzyme ε it was greater than 150 µM; in assay [2], 89 µM.

As for `O=C1C(Nc2ccc(S(=O)(=O)Nc3cnc4ccccc4n3)cc2)=CC(=Nc2ccc(S(=O)(=O)Nc3cnc4ccccc4n3)cc2)c2ccccc21` [Compound 6m], the 50% inhibitory concentration (IC50) in assay [1] was less than 0.39 µM; on PKC isoenzyme ε it was 141 µM; in assay [2] it was 145 µM.

For the molecule `O=C1C(Nc2ccc(S(=O)(=O)NCc3ccccn3)cc2)=CC(=Nc2ccc(S(=O)(=O)NCc3ccccn3)cc2)c2ccccc21` [Compound 6n], the concentration for half-maximal inhibition (IC50) in assay [1] is 0.5 µM; at PKC isoenzyme ε, 149 µM; in assay [2], greater than 150 µM. Moreover, the “effect on PKA activity” value in assay [2] is given as “did not effect on PKA activity”.

For the origin of these results see US5292737A, “N,N'-bis(sulfonamido)-2-amino-4-iminonaphthalen-1-ones and N,N'-bis(amido)-2-amino-4-iminonaphthalen-1-ones” (Sphinx Pharmaceuticals Corporation, priority 1992, dated 1994).
